The source of these data is publication PMC6152089, “Steroid Alkaloids from Holarrhena africana with Strong Activity against Trypanosoma brucei rhodesiense” (Molecules : A Journal of Synthetic Chemistry and Natural …, 2017).

Data set [1] in a line: Cytotoxicity against L6 cells. It is filed as cell-based, rat. The following applies: rat. As to the method: (§1) In vitro tests for biological activity of the crude extracts, fractions, sub-fractions and isolated compounds against Trypanosoma brucei rhodesiense (bloodstream trypomastigotes, STIB 900 strain), Trypanosoma cruzi (amastigotes, Tulahuen C4 strain), Leishmania donovani (amastigotes, MHOM-ET-67/L82 strain), Plasmodium falciparum (intraerythrocytic form, NF54 strain) and cytotoxicity test against mammalian L6 cell line from rat skeletal myoblasts were performed according to the established standard protocol. However, only the activity data against Trypanosoma brucei rhodesiense is reported due to the inactivity of the tested substances against other parasites at the concentration tested.

The test system of data set [2] is Trypanosoma brucei rhodesiense (bloodstream trypomastigotes, STIB 900 strain). Nature of the data set: In vitro anti-trypanosomal activity against Tbr. Format: cell-based. Here is the method:
as §1

Data set [3] relates to L6 rat skeletal myoblasts. The experiment in a line: Cytotoxicity against L6 cells. It is filed as cell-based. Here is the method: as §1
Where [4] appears, read: Trypanosoma brucei, isolated compounds, average of two determinations ± absolute deviation, read-out: Tbr (STIB900) IC50.
Where [5] appears, read: Trypanosoma brucei, isolated compounds, average of two determinations ± absolute deviation, read-out: Tbr (STIB900) IC50 (µg/mL).
The mark [6] stands for this setting: isolated compounds, average of two determinations ± absolute deviation, read-out: Tbr (STIB900) IC50.
The mark [7] stands for this setting: isolated compounds, average of two determinations (a: one replicate), read-out: Cytotoxicity L6 Cells IC50.
Setting [8] is: isolated compounds, average of two determinations (a: one replicate), read-out: Cytotoxicity L6 Cells IC50 (µg/mL).

Where “and” joins values, the source holds several entries; their conditions need not be identical. Equal values may be shown once. Read-outs that look alike come from different tables or passages of the source.

As to `CN[C@H]1CC[C@@]2(C)C(=CC[C@H]3[C@@H]4CC[C@@H]5[C@H](C)N(C)C[C@@]54CC[C@@H]32)C1` [Compound 12, isoconessimine], the IC50 is 9.38 µg/mL and 27.4 µM in data set [1]; 0.17 ± 0.11 µM in data set [2] (setting [4]); 0.056 ± 0.038 µg/mL in data set [2] (setting [5]); 0.166 ± 0.112 µM in data set [2] (setting [6]).
As to `CC(C)=CCC(=O)O[C@@H]1C[C@H]2[C@@H](CC=C3C[C@@H](N(C)C)CC[C@@]32C)[C@@H]2CC[C@@H]3[C@H](C)N(C)C[C@]312` [Compound 15, holarrhetine], the IC50 in data set [1] is 45.8 µg/mL and 97.7 µM; in data set [2] (setting [4]) it was 1.66 ± 0.39 µM; in data set [2] (setting [5]), 0.777 ± 0.182 µg/mL.
As to `CN[C@H]1CC[C@@]2(C)C(=CC[C@H]3[C@@H]4CC[C@H](C(C)=O)[C@@]4(C)CC[C@@H]32)C1` [Compound 3, 3β-N-methylholaphyllamine], the IC50 in data set [1] is 0.829 µg/mL and 2.48 µM; in data set [2] (setting [4]) it was 0.08 ± 0.01 µM; in data set [2] (setting [5]) it was 0.025 ± 0.001 µg/mL; in data set [2] (setting [6]), 0.075 ± 0.004 µM.
Regarding `CC(=O)[C@H]1CC[C@H]2[C@@H]3CC[C@H]4C[C@@H](N)CC[C@]4(C)[C@H]3CC[C@]12C` [Compound 5, 3β-dihydroholaphyllamine], the IC50 in data set [1] (setting [7]) was 17.4 ± 1.36 µM; in data set [1] (setting [8]) it was 5.51 ± 0.43 µg/mL; in data set [2] (setting [4]) it was 0.67 ± 0.03 µM; in data set [2] (setting [5]) it was 0.213 ± 0.008 µg/mL; in data set [2] (setting [6]) it was 0.672 ± 0.027 µM.
In the case of `C[C@H]1[C@H]2CC[C@H]3[C@@H]4C=CC5=CC(=O)CC[C@]5(C)[C@H]4CC[C@]23CN1C` [Compound 9, cona-4,6-dienin-3-one], the IC50 in data set [1] is 41.9 µg/mL and 129 µM; in data set [2] (setting [4]) it was 17.5 ± 0.2 µM; in data set [2] (setting [5]), 5.69 ± 0.07 µg/mL.
Turning to `CC(=O)N[C@H]1CC[C@@]2(C)C(=CC[C@H]3[C@@H]4CC[C@H](C(C)=O)[C@@]4(C)CC[C@@H]32)C1` [Compound 2, holaphyllamine acetamide], the IC50 was 5.49 µg/mL and 15.4 µM in data set [1]; 4.8 to 14.9 µM in data set [2] (setting [4]); 1.73 ± 0.47 µg/mL in data set [2] (setting [5]); 4.83 ± 1.33 µM in data set [2] (setting [6]).
Regarding `CN[C@H]1CC[C@@]2(C)C(=CC[C@H]3[C@@H]4CC[C@@H]5[C@H](C)N(C)C[C@@]54[C@H](O)C[C@@H]32)C1` [Compound 16, holarrheline], the IC50 in data set [1] was 64.8 µg/mL and 181 µM; in data set [2] (setting [4]) it was 8.21 ± 1.03 µM; in data set [2] (setting [5]), 2.94 ± 0.37 µg/mL.
On to `COc1cc([C@@H]2c3cc4c(cc3[C@H](O)[C@H]3COC(=O)[C@H]23)OCO4)cc(OC)c1OC` [podophyllotoxin, reference compound], for which the IC50 in data set [1] (Table 1, Leaves, L6 cells (c: one replicate), read-out: Cytotox. L6 IC50) worked out at 0.004 ± 0.001 µg/mL.
As to `C[C@H]1[C@H]2CC[C@H]3[C@@H]4C(=O)C=C5C=CCC[C@]5(C)[C@H]4CC[C@]23CN1C` [Compound 10, cona-3,5-dienin-7-one], the IC50 is 41.7 ± 18.9 µM in data set [1] (setting [7]), 13.6 ± 6.2 µg/mL in data set [1] (setting [8]), 7.37 ± 0.94 µM in data set [2] (setting [4]) and 2.4 ± 0.3 µg/mL in data set [2] (setting [5]).
In the case of `C[C@H]1[C@H]2CC[C@H]3[C@@H]4CCC5=CC(=O)C=C[C@]5(C)[C@H]4CC[C@]23CN1C` [Compound 7, holadienine], the values for the IC50 in data set [2] (setting [4]) and in data set [2] (setting [5]) were 14.9 ± 2.1 µM and 4.81 ± 0.68 µg/mL, respectively.
For the compound `CC(=O)[C@H]1CC[C@H]2[C@@H]3CC[C@H]4C[C@H](N)CC[C@]4(C)[C@H]3CC[C@]12C` [Compound 6, 3α-dihydroholaphyllamine], the IC50 in data set [1] (setting [7]) came out at 17 ± 1.2 µM; in data set [1] (setting [8]), 5.38 ± 0.39 µg/mL; in data set [2] (setting [4]), 1.21 ± 0.75 µM; in data set [2] (setting [5]), 0.382 ± 0.238 µg/mL.
With `CN[C@H]1CC[C@@]2(C)C(=CC[C@H]3[C@@H]4CC[C@@H]5[C@H](C)N(C)C[C@@]54[C@H](OC(=O)CC=C(C)C)C[C@@H]32)C1` [Compound 14, holarrhesine], the IC50 in data set [1] was 6.51 µg/mL and 14.3 µM; in data set [2] (setting [4]), 0.12 ± 0.08 µM; in data set [2] (setting [5]), 0.054 ± 0.038 µg/mL; in data set [2] (setting [6]), 0.119 ± 0.084 µM.
As to `C[C@]12C=CC(=O)C=C1CC[C@@H]1[C@@H]2[C@@H](O)C[C@]2(C)C(=O)CC[C@@H]12` [Compound 18, kurchinin], the IC50 in data set [2] (setting [5]) was 3.64 ± 0.21 µg/mL.
Consider N^3-isopentenyl adenine [Compound 19], for which, in data set [3], the “Cytotoxicity L6 Cells IC50” value was determined as 61.30 ± 4.24 µg/mL and the IC50 is 302 ± 6.8 µM. The “Tbr (STIB900) IC50” value in data set [2] (isolated compounds, average of two determinations ± absolute deviation) was determined as 5.03 ± 0.54 µg/mL.
Consider `C[C@@H]1NC[C@]23CC[C@H]4[C@@H](CC=C5C[C@@H](N(C)C)CC[C@@]54C)[C@@H]2CC[C@H]13` [Compound 11, conessimine], for which the IC50 in data set [1] was 17.3 µg/mL and 50.4 µM; in data set [2] (setting [4]), 0.17 ± 0.08 µM; in data set [2] (setting [5]), 0.057 ± 0.028 µg/mL; in data set [2] (setting [6]), 0.167 ± 0.083 µM.
As to `C[C@@H]1N=C[C@]23C[C@H](O)[C@H]4[C@@H](CCC5=CC(=O)C=C[C@@]54C)[C@@H]2CC[C@H]13` [Compound 8, holonamine], the IC50 in data set [1] was 21.1 µg/mL and 64.9 µM; in data set [2] (setting [4]), 8.67 ± 2.33 µM; in data set [2] (setting [5]) it was 2.82 ± 0.76 µg/mL.
Take `C[C@H]1[C@H]2CC[C@H]3[C@@H]4CC=C5C[C@@H](N(C)C)CC[C@]5(C)[C@H]4CC[C@]23CN1C` [Compound 13, conessine]: the IC50 in data set [1] (L6 rat skeletal myoblast cells, isolated compounds, average of two determinations (a: one replicate), read-out: Cytotoxicity L6 Cells IC50) came out at 61.2 µM; in data set [1] (L6 rat skeletal myoblast cells, isolated compounds, average of two determinations (a: one replicate), read-out: Cytotoxicity L6 Cells IC50 (µg/mL)), 21.8 µg/mL; in data set [2] (setting [4]) it was 0.42 ± 0.09 µM; in data set [2] (setting [5]), 0.149 ± 0.031 µg/mL; in data set [2] (setting [6]), 0.419 ± 0.087 µM.
Take `CC(=O)[C@H]1CC[C@H]2[C@@H]3CC=C4C[C@@H](N)CC[C@]4(C)[C@H]3CC[C@]12C` [Compound 1, 3β-holaphyllamine]: the IC50 in data set [1] was 1.61 µg/mL and 5.1 µM; in data set [2] (setting [5]), 0.127 ± 0.088 µg/mL; in data set [2] (setting [6]) it was 0.4 ± 0.28 µM.
As to `C[C@H]1[C@H]2CC[C@H]3[C@@H]4CC=C5C[C@@H](N(C)C)CC[C@]5(C)[C@H]4C[C@@H](O)[C@]23CN1C` [Compound 17, holarrhenine], the IC50 in data set [1] was 46.4 µg/mL and 125 µM; in data set [2] (setting [4]) it was 20.9 ± 6 µM; in data set [2] (setting [5]), 7.78 ± 2.23 µg/mL.
On to `CC(=O)[C@H]1CC[C@H]2[C@@H]3CC=C4C[C@H](N)CC[C@]4(C)[C@H]3CC[C@]12C` [Compound 4, 3α-holaphyllamine], for which the IC50 in data set [1] is 5 µg/mL and 15.9 µM; in data set [2] (setting [4]) it was 0.37 ± 0.159 µM; in data set [2] (setting [5]), 0.117 ± 0.05 µg/mL.
In the case of `Nc1nc(N)nc(Nc2ccc([As]3SCC(CO)S3)cc2)n1` (stereo not shown) [melarsoprol, reference compound], the IC50 in data set [2] (Trypanosoma brucei, read-out: Tbr IC50) was 0.002 ± 0.001 µg/mL.
